Data on eight compounds can be found in patent US10195164B2, “Use of disulfiram for inflammatory breast cancer therapy” (Duke University, priority 2015, dated 2019).

One series deals with rSUM149 cells. In words: Trypan blue viability assay. Type of series: cell-based, human. The conditions noted are these: for effect of Cu chelator on DSF-Cu-induced cell death: BCS 100 μM, TM 10 μM. The protocol:
(§1) Cells were treated for 24 h in regular growth medium with Disulfiram (Sigma), CuSO4 (VWR), SOD mimetic (MnTnHex-2-PyP^5+), bathocuproine disulfonate (BCS, Sigma), and tetrathiomolybdate (TM, Sigma). Cell viability was determined by trypan blue exclusion as described previously (Aird et al., 2008) where % viability was calculated as live cells/total cells×100.

A further series concerns SUM149 cells. In words: Trypan blue viability assay. Type of series: cell-based, human. The conditions noted are these: for effect of Cu chelator on DSF-Cu-induced cell death: BCS 100 μM, TM 10 μM. The protocol:
as §1

The next series has as its system Nrf2. In words: Nrf2 activity assay (ARE luciferase reporter). Type of series: cell-based. As to conditions: Cu 10 μM, DSF 10-20 μM, DSF-Cu 150 nM. The protocol: Cells in opaque 96-well plates (Greiner Bio-One) were transfected with pGL4.37 (ARE firefly luciferase reporter, Promega) and pGL4.75 (Renilla luciferase control, Promega) plasmids using a 3:1 ratio of […] (Roche Applied Science, Indianapolis, Ind.) to DNA. The next day, cells were treated with as indicated. After 24 h, the Dual-Glo Luciferase Assay System (Promega) was used and luminescence read on a Veritas microplate luminometer (Turner BioSystems). Firefly luminescence was normalized to Renilla luminescence for each sample, and this value normalized to untreated.
For orientation: Reporter assays use an easily measured gene product as a stand-in for the process of interest.

In another series the test system is ALDH. Nature of the series: ALDEFLUOR assay. The conditions noted are these: SUM149 cells, 24 h, sub-lethal dose. Type of series: cell-based, human. As to the method:
ALDH enzymatic activity was assessed using the ALDEFLUOR kit (Stem Cell Technologies) according to the manufacturer's instructions. Briefly, cells were incubated with ALDH substrate for 35 minutes at 37° C. The specific ALDH inhibitor diethylaminobenzaldehyde (DEAB) was used as negative control. Sorting gates were established using 7-AAD stained cells for viability and ALDEFLUOR-stained cells treated with DEAB as negative controls. Dot plots from a representative experiment are shown with mean±SEM from four experiments.

In the next series the test system is IBC cells. In words: Trypan blue viability assay, IBC cell lines overall. Type of series: cell-based. The protocol:
as §1

For series [1], the system named is IBC cells (SUM149, rSUM149). Nature of the series: Cell-associated Cu in cell lysates by ICP-HRMS. Type of series: cell-based. As to conditions: 10 μM Cu, 24 h. As to the method: Cell lysates were prepared as above. For tumors, a portion of each tumor was placed into tissue lysis buffer (GoldBio Technology) and homogenized using the Bullet Blender Storm and lysis beads (MidSci). Lysates were analyzed for Cu content using a Thermo Scientific Element 2 inductively coupled plasma high-resolution mass spectrometer (ICP-HRMS) at the W. M. Keck Elemental Geochemistry Laboratory (University of Michigan, Ann Arbor, Mich.), and Cu content of lysis buffer blank was subtracted from each sample. Values were normalized to protein for reporting as ng Cu/mg protein.

For series [2] the following is noted: accepted daily dosing of 250-500 mg, human plasma; cited from earlier work.
Series [3] deals with BCM2 Xenograft brain metastatic cells. The conditions noted are these: due to upregulation of GSH; cited from earlier work.
For a further series, the system named is tumor xenografts. In words: Tumor radiation control curve with MnSOD mimic. Type of series: in vivo.
Series [4] relates to ctr1/ctr3Δ mutant MPY17 S. cerevisiae cells. Nature of the series: Complementation of S. cerevisiae Cu+-transport mutants. Type of series: cell-based, Saccharomyces cerevisiae. The conditions noted are these: YPEG media, 30° C., 3 days, absorbance at 600 nm. The protocol: SEY6210 (wild type) (Robinson et al., 1988) and ctr1/ctr3Δ mutant MPY17 S. cerevisiae cells (Pena et al., 1998) were grown in YPEG media (3% ethanol, 3% glycerol, 1% yeast extract, 2% Bacto Peptone, 2% agar) with addition of 0-50 μM known Cu ionophore, zinc pyrithione (ZPT) (Reeder et al., 2011), or DSF. Cells were allowed to grow at 30° C. for 3 days; growth was assessed by measuring optical density at 600 nm on a Spectramax Plus 384 plate reader (Molecular Devices).

A value given as a limit tells only on which side of the number the result lay.

Regarding `Cc1cc(-c2ccc(S(=O)(=O)O)cc2)c2ccc3c(-c4ccc(S(=O)(=O)O)cc4)cc(C)nc3c2n1` [BCS, bathocuproine disulphonate], the “effect of Cu chelator on DSF-Cu-induced cell death” value in the series with rSUM149 cells and in the series with SUM149 cells was “almost completely blocked DSF-Cu-induced cell death” throughout.
`O=S(=O)([O-])[O-].[Cu+2]` [Cu, CuSO4]: in the series with Nrf2, the Nrf2 transcriptional activity result is reported as “induced Nrf2 transcriptional activity”. Moreover, the “ALDH+ population” value in the series with ALDH is on record as “neither DSF nor Cu alone affected”. The cytotoxicity entry in the series with IBC cells (Cu alone (10 μM), 24 h) was “not cytotoxic”. In addition, the Cu accumulation result in series [1] is recorded as “slight increase”.
What is called IC50 is the concentration that gives 50% inhibition. As to `CCN(CC)C(=S)SSC(=S)N(CC)CC` [DSF, Disulfiram], the IC50 with rSUM149 cells (Homo sapiens, DSF alone, 24 h, trypan blue exclusion) is 25 to 30 µM; in the series with SUM149 cells (Homo sapiens, SUM149, DSF alone, 24 h, trypan blue exclusion), approximately 17 µM. The plasma concentration in series [2] was less than 2 µM. The “concentrations at which DSF induced toxicity” value with IBC cells (DSF alone) is recorded as “greater than 10 μM”.
Consider `[SH-].[SH-].[S]=[Mo]=[S]` [TM, tetrathiomolybdate], for which the “effect of Cu chelator on DSF-Cu-induced cell death” value in the series on rSUM149 cells and in the series on SUM149 cells was “almost completely blocked DSF-Cu-induced cell death” each time.
Consider `CC(C)C[C@H](NC(=O)[C@H](Cc1ccccc1)NC(=O)c1cnccn1)B(O)O` [bortezomib], for which the “fold less sensitive to bortezomib” value in [3] is on record as “drugs; brain metastatic cells 60-fold less”.
In the case of MnBuOE, the dose modifying factor in the series with tumor xenografts (radiosensitization of xenograft tumors) is on record as 1.3. In the series with tumor xenografts (total RT applied in 5 fractions, treatment pre- and post-RT, saline controls 47Gy), this compound registered a TCD50 dose of 36.5 Gy.
MnTnHexyl-2-PyP^5+: in the series on rSUM149 cells (100-200 μM SOD mimetic), the “effect of SOD mimetic on DSF-Cu cell death” value is on record as “blocked cell death caused by DSF-Cu treatment”.
zinc pyrithione [ZPT]: in series [4], the “growth of MPY17 cells” value is given as “grew similarly to the SEY6210 cells”.
